Results as given in ChEMBL document CHEMBL1201862, “PubChem BioAssay data set” (2004).
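1) Cells in 96-well plates. 2) Compound, 48 h, 5 concentrations. 3) Linear interpolation between surrounding doses. 4) Unreached endpoint = highest concentration. Here, GI50 denotes the concentration required for 50% inhibition of growth.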 Activity calls are given as the source filed them. Rule as the data show it: active = GI50 up to about 1.1 µM and inactive = higher.

Key:
Experiment in all cases: NCI tumour cell line growth inhibition, 48 h
[1] = test system: SW-620
[2] = test system: TK-10
[3] = test system: CCRF-CEM
[4] = test system: HCC 2998
[5] = test system: SF-268
[6] = test system: MDA-N
[7] = test system: M14
[8] = test system: RPMI-8226
[9] = test system: SF-539
[10] = test system: SK-MEL-28
[11] = test system: HT-29
[12] = test system: U-251
[13] = test system: NCI-H522
[14] = test system: KM12
[15] = test system: NCI-H23
[16] = test system: Hs-578T
[17] = test system: SNB-19
[18] = test system: OVCAR-4
[19] = test system: MDA-MB-435
[20] = test system: MDA-MB-231
[21] = test system: SK-MEL-2
[22] = test system: MCF7
[23] = test system: LOX IMVI
[24] = test system: UO-31
[25] = test system: HOP-92
[26] = test system: PC-3
[27] = test system: SN12C
[28] = test system: ACHN
[29] = test system: HL-60
[30] = test system: SNB-75
[31] = test system: DU-145
[32] = test system: OVCAR-5
[33] = test system: RXF 393
[34] = test system: OVCAR-8
[35] = test system: HCT-15
[36] = test system: IGROV-1
[37] = test system: NCI-H460
[38] = test system: COLO 205
[39] = test system: HOP-62
[40] = test system: OVCAR-3
[41] = test system: T47D
[42] = test system: UACC-257
[43] = test system: A549
[44] = test system: BT-549
[45] = test system: SR
[46] = test system: NCI/ADR-RES
[47] = test system: EKVX
[48] = test system: CAKI-1
[49] = test system: Malme-3M
[50] = test system: A498
[51] = test system: K562
[52] = test system: SK-MEL-5

Measured: GI50

COC(=O)/C=C\n1nc(Br)c(=O)[nH]c1=O
85.7 µM: [35]
inactive: [1] > 100 µM | [2] > 100 µM | [3] > 100 µM | [4] > 100 µM | [5] > 100 µM | [6] > 100 µM | [7] > 100 µM | [8] > 100 µM | [9] > 100 µM | [10] > 100 µM | [11] > 100 µM | [12] > 100 µM | [13] 35.1 µM | [14] > 100 µM | [15] > 100 µM | [16] > 100 µM | [17] > 100 µM | [18] > 100 µM | [19] > 100 µM | [20] > 100 µM | [21] > 100 µM | [22] > 100 µM | [23] > 100 µM | [24] > 100 µM | [25] > 100 µM | [26] > 100 µM | [27] > 100 µM | [28] > 100 µM | [29] 66.4 µM | [30] > 100 µM | [31] > 100 µM | [32] > 100 µM | [33] 83.9 µM | [34] > 100 µM | [36] > 100 µM | [37] > 100 µM | [38] > 100 µM | [39] > 100 µM | [40] > 100 µM | [41] > 100 µM | [42] > 100 µM | [43] > 100 µM | [44] > 100 µM | [45] > 100 µM | [46] > 100 µM | [47] > 100 µM | [48] > 100 µM | [49] > 100 µM | [50] > 100 µM | [51] > 100 µM | [52] > 100 µM
